One experiment deals with T1, human COX-II (Homo sapiens, UniProt P35354).
T1 sequence (P35354 18-604): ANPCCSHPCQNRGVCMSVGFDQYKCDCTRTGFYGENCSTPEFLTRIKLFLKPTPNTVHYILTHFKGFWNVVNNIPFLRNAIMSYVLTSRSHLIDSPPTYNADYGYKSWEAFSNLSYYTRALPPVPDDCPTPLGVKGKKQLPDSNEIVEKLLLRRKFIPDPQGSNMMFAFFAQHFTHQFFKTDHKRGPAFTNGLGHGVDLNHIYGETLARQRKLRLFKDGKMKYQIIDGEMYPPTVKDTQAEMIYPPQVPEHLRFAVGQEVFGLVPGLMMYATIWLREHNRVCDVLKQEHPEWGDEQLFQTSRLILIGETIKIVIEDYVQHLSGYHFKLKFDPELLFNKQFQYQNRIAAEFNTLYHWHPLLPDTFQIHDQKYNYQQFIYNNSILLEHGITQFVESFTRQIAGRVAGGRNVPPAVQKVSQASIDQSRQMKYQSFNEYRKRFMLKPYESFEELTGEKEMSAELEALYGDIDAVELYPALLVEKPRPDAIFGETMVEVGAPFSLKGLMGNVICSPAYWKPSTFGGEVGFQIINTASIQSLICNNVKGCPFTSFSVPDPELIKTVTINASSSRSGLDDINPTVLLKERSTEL
Nature of the experiment: COX II activity in vitro, human (PGE2 by ELISA).

In another experiment the target is human COX-I (Homo sapiens, UniProt P23219). Nature of the experiment: COX I activity in vitro, human (PGE2 by ELISA).
human COX-I, sequence (P23219 24-599): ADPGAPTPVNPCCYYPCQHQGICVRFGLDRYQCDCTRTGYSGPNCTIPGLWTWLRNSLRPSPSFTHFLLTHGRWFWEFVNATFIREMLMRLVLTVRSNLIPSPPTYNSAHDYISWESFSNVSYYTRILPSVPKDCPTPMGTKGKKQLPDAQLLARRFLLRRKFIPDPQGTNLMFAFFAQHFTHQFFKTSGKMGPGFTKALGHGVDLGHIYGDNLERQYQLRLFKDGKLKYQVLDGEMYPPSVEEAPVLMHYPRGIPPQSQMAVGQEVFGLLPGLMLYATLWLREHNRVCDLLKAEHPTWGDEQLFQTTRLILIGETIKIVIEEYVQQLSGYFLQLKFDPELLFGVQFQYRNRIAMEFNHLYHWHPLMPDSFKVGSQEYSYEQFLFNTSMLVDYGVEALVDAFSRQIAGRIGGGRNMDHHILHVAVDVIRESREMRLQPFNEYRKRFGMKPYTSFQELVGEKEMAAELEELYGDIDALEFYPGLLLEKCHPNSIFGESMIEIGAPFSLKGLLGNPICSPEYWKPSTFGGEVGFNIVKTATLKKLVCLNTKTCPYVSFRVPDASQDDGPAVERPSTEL
The next experiment addresses T2, murine COX-II (Mus musculus, UniProt Q05769).
T2 sequence (Q05769 18-604): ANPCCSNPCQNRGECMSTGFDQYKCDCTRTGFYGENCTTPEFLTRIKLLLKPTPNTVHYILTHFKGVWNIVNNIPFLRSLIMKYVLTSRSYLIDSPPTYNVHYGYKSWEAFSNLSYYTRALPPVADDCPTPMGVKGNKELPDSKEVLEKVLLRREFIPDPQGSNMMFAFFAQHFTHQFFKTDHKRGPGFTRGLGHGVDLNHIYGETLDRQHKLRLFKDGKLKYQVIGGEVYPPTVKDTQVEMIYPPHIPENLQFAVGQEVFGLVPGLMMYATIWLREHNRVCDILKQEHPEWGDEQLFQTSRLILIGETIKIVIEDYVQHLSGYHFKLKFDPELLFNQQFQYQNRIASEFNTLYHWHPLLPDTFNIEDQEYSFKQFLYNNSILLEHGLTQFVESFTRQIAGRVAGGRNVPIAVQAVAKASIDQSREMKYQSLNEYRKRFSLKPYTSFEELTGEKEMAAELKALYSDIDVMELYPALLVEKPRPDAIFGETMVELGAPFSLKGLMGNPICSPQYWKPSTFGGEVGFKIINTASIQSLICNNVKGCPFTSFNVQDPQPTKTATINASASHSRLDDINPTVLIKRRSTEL
The experiment in a line: biochemical.

Another experiment has as its target T3, murine COX-I (Mus musculus, UniProt P22437).
T3 sequence (P22437 27-602): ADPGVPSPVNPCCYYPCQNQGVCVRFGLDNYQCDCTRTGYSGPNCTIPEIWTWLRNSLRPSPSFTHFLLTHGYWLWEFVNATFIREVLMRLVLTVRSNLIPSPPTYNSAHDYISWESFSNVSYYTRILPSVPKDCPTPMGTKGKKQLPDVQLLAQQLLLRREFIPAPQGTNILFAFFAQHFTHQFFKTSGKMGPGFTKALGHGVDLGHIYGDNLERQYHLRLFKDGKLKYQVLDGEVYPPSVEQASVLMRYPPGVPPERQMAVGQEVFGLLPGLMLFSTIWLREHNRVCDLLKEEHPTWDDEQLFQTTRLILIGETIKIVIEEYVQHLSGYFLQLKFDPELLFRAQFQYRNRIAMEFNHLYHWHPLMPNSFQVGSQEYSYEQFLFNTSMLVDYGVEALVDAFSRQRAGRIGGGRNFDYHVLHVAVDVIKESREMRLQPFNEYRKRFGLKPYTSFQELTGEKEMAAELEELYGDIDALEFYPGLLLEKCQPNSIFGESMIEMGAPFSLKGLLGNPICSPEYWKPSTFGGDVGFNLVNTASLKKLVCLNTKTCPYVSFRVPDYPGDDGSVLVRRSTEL
The experiment in a line: COX I activity in vitro, murine (PGE2 by ELISA).

The test system of a further experiment is carrageenan foot edema. Nature of the experiment: Rat Carrageenan Foot Pad Edema Test. Format: in vivo, rat (Male Sprague-Dawley). The note with it: oral, 3 hours after carrageenan, read-out: RAT PAW EDEMA % Inhibition; for inhibition at 20 mg/kg: @ 20 mg/kg body weight. The procedure:
Male Sprague-Dawley rats were selected in each group so that the average body weight was as close as possible. Rats were fasted with free access to water for over sixteen hours prior to the test. […] One hour later a subplantar injection of 0.1 mL of 1% solution of carrageenan/sterile 0.9% saline was administered and the volume of the injected foot was measured with a displacement plethysmometer connected to a pressure transducer with a digital indicator. Three hours after the injection of the carrageenan, the volume of the foot was again measured. […] Rat Carrageenan-induced Analgesia Test

Structures are written as SMILES. pIC50: −log10 of the molar value. Read-outs that look alike come from different tables or passages of the source.

`CS(=O)(=O)c1ccc(-c2sc(-c3ccccc3Cl)nc2-c2ccccc2)cc1` [Example 2, 2-(2-Chlorophenyl)-4-phenyl-5-(4-methylsulfonylphenyl)thiazole]: the pIC50 against human COX-II was more than 7.00.
For the compound `CS(=O)(=O)c1ccc(-c2sc(-c3ccc(Br)s3)nc2-c2ccc(F)cc2)cc1` [Example 25, 2-(5'-Bromo-2'-thienyl)-4-(4-fluorophenyl)-5-(4-methylsulfonylphenyl)thiazole], the pIC50 is 5.59 against human COX-I and more than 7.00 on human COX-II.
The like results for `CS(=O)(=O)c1ccc(-c2sc(-c3ccccc3Cl)nc2-c2ccccc2Cl)cc1` [Example 9, 2-(2-Chlorophenyl)-4-(2-chlorophenyl)-5-(4-methylsulfonylphenyl)thiazole] were, in that order, less than 4.00 and more than 7.00.
On to `CS(=O)(=O)c1ccc(-c2sc(CCCc3ccc(Br)cc3)nc2-c2ccc(F)cc2)cc1` [Example 21], for which the pIC50 against murine COX-II was more than 7.00; against murine COX-I, less than 5.00; at human COX-II, more than 7.00.
On to `CS(=O)(=O)c1ccc(-c2nc(C(F)(F)F)sc2-c2ccc(F)cc2)cc1` [Example 56, 5-(4-fluorophenyl)-4-(4-methylsulfonylphenyl)-2-trifluoromethylthiazole], for which the inhibition at 10 mg/kg in the experiment with carrageenan foot edema is 20%. Moreover, the pIC50 at murine COX-II is more than 7.00; on human COX-I it was less than 4.00; on murine COX-I, less than 4.00; against human COX-II, more than 7.00.
As to `COc1ccc(OCc2nc(-c3ccc(F)cc3)c(-c3ccc(S(C)(=O)=O)cc3)s2)cc1` [Example 41, 4-(4-Fluorophenyl)-2-[(4-methoxyphenoxy)methyl]-5-[4-(methylsulfonyl)phenyl]thiazole], the inhibition at 20 mg/kg in the experiment on carrageenan foot edema was 4%. Also, the pIC50 is less than 4.00 against human COX-I and more than 7.00 against human COX-II.
On to `NS(=O)(=O)c1ccc(-c2sc(-c3ccccc3Cl)nc2-c2ccc(F)cc2)cc1` [Example 32, 4-[4-(4-Fluorophenyl)-2-(2-chlorophenyl)-5-thiazolyl]benzensulfonamide], for which the pIC50 was 6.15 against human COX-I and more than 7.00 against human COX-II.
The like results for `COc1ccc(-c2nc(-c3ccccc3Cl)sc2-c2ccc(S(C)(=O)=O)cc2)cc1` [Example 11, 2-(2-Chlorophenyl)-4-(4-methoxyphenyl)-5-(4-methylsulfonylphenyl)thiazole] were, in that order, less than 4.00 and more than 7.00.
Take `CS(=O)(=O)c1ccc(-c2sc(C(Br)S(=O)(=O)c3cccs3)nc2-c2ccc(F)cc2)cc1` (stereo not shown) [Example 14]: the pIC50 at murine COX-II is 6.30; on human COX-I, less than 4.00; against murine COX-I, 4.40; on human COX-II, 6.22.
`CS(=O)(=O)c1ccc(-c2sc(-c3ccccc3Cl)nc2-c2ccc(Cl)cc2)cc1` [Example 10, 2-(2-Chlorophenyl)-4-(4-chlorophenyl)-5-(4-methylsulfonylphenyl)thiazole]: in the experiment with carrageenan foot edema, the inhibition at 20 mg/kg was determined as 14%. Further, the values for the pIC50 at human COX-I and against human COX-II were less than 4.00 and more than 7.00, respectively.
As to `CS(=O)(=O)c1ccc(-c2sc(-c3ccccc3Cl)nc2-c2ccc(F)cc2F)cc1` [Example 4, 4-(2,4-Difluorophenyl)-2-(2-chlorophenyl)-5-(4-methylsulfonylphenyl)thiazole], the pIC50 was more than 7.00 against murine COX-II; 4.15 on human COX-I (read-out: COX I ID50, human (h), 10 μM arachidonic acid); 5.21 against murine COX-I; more than 7.00 at human COX-II.
Consider `CS(=O)(=O)c1ccc(-c2sc(COc3cccc(Cl)c3)nc2-c2ccccc2F)cc1` [Example 36, 2-(3-Chlorophenoxy)methyl-4-(2-fluorophenyl)-5-[4-(methylsulfonyl)phenyl]thiazole], for which the results for the pIC50 on human COX-I and at human COX-II were less than 4.00 and more than 7.00, respectively.
The like results for `Cc1ccccc1-c1nc(-c2ccccc2Cl)sc1-c1ccc(S(C)(=O)=O)cc1` [Example 5, 2-(2-Chlorophenyl)-4-(2-methylphenyl)-5-(4-methylsulfonylphenyl)thiazole] were, in that order, less than 4.00 and more than 7.00.
`CS(=O)(=O)c1ccc(-c2sc(-c3ccccc3Cl)nc2-c2cccc(F)c2)cc1` [Example 3, 2-(2-Chlorophenyl)-4-(3-fluorophenyl)-5-(4-methylsulfonylphenyl)thiazole]: the pIC50 against human COX-II is more than 7.00.
Take `CS(=O)(=O)c1ccc(-c2sc(COc3ccccc3Cl)nc2-c2ccc(F)cc2)cc1` [Example 38, 2-((2-Chlorophenoxy)methyl)-4-(4-fluorophenyl)-5-(4-methylsulfonylphenyl)thiazole]: the pIC50 at human COX-I was less than 4.00; against human COX-II it was more than 7.00.
For `Cc1ccc(-c2nc(-c3ccccc3Cl)sc2-c2ccc(S(C)(=O)=O)cc2)cc1` [Example 15, 2-(2-Chlorophenyl)-5-(4-methylsulfonylphenyl)-4-(4-methylphenyl)thiazole] the same measures were less than 4.00 and 6.70.
At human COX-I, `NS(=O)(=O)c1ccc(-c2sc(COc3cc(Cl)cc(Cl)c3)nc2-c2ccc(F)cc2)cc1` [Example 34, 4-[2-((3,5-Dichlorophenoxy)methyl)-4-(4-fluorophenyl)-5-thiazolyl]benezenesulfonamide] showed a pIC50 of more than 7.00.
For the compound `CS(=O)(=O)c1ccc(-c2sc(COc3ccc(Cl)cc3)nc2-c2ccc(F)cc2)cc1` [Example 1, 2-((4-Chlorophenoxy)methyl)-4-(4-fluorophenyl)-5-(4-methylsulfonylphenyl)thiazole], the pIC50 against human COX-I is less than 5.00; against murine COX-I, less than 4.00; on human COX-II, more than 7.00.
With `Cc1nc(-c2nc(-c3ccc(F)cc3)c(-c3ccc(S(C)(=O)=O)cc3)s2)cs1` [Example 39, 4-(4-Fluorophenyl)-5-[4-(methylsulfonyl)phenyl]-2-(2-methyl-4-thiazolyl)thiazole], the inhibition at 20 mg/kg with carrageenan foot edema is 19%. In addition, the pIC50 is 6.52 against murine COX-II and less than 5.00 against murine COX-I.
For `CCCNc1nc(-c2ccc(F)cc2)c(-c2ccc(S(C)(=O)=O)cc2)s1` [Example 31, 4-(4-Fluorophenyl)-5-(4-methylsulfonylphenyl)-2-(1-propylamino)thiazole], the inhibition at 10 mg/kg in the experiment with carrageenan foot edema was found to be 27.5%. The pIC50 was 7.00 against murine COX-II and less than 5.00 at murine COX-I.
As for `CS(=O)(=O)c1ccc(-c2sc(-c3ccccc3Cl)nc2-c2ccc(Br)cc2)cc1` [Example 40, 4-(4-Bromophenyl)-2-(2-chlorophenyl)-5-[4-(methylsulfonyl)phenyl]thiazole], the pIC50 was less than 4.00 on human COX-I and more than 7.00 against human COX-II.
For the compound `CNc1nc(-c2ccc(F)cc2)c(-c2ccc(S(C)(=O)=O)cc2)s1` [Example 48, 4-(4-Fluorophenyl)-5-(4-methylsulfonylphenyl)-2-methylaminothiazole], the inhibition at 10 mg/kg in the experiment on carrageenan foot edema is 15%. Further, the pIC50 was 6.52 against murine COX-II and less than 5.00 on murine COX-I.

Values taken from patent publication US5668161A, “Substituted thiazoles for the treatment of inflammation” (G.D. Searle & Co., priority 1996, dated 1997).
